Consider two molecules from patent US20230133958A1, “COMPOUNDS USEFUL IN MODULATING EGFR AND PI3K” (Mekanistic Therapeutics LLC, priority 2021, published 2023).

The target in experiment [1] is PI3Kα (Homo sapiens, UniProt P42336). The experiment is described as follows: Z'-LYTE / Adapta biochemical kinase assay, PI3Kα. The note with it: for inhibition at 0.1 µM: concentration of 100 nM/liter, read-out: Percent Inhibition of target enzymes, PI3K A. The source says:
The Z′-LYTE® biochemical assay employs a fluorescence-based, coupled-enzyme format and is based on the differential sensitivity of phosphorylated and non-phosphorylated peptides to proteolytic cleavage. The peptide substrate is labeled with two fluorophores—one at each end—that make up a FRET pair. In the primary reaction, the kinase transfers the gamma-phosphate of ATP to a single tyrosine, serine or threonine residue in a synthetic FRET-peptide. In the secondary reaction, a site-specific protease recognizes and cleaves non-phosphorylated FRET-peptides. Phosphorylation of FRET-peptides suppresses cleavage by the Development Reagent. Cleavage disrupts FRET between the donor (i.e., coumarin) and acceptor (i.e., fluorescein) fluorophores on the FRET-peptide, whereas uncleaved, phosphorylated FRET-peptides maintain FRET. A ratiometric method, which calculates the ratio (the Emission Ratio) of donor emission to acceptor emission after excitation of the donor fluorophore at 400 nm, is used to quantitate reaction progress.
A significant benefit of this ratiometric method for quantitating reaction progress is the elimination of well-to-well variations in FRET-peptide concentration and signal intensities. As a result, the assay yields very high Z′-factor values (>0.7) at a low percent phosphorylation.
Both cleaved and uncleaved FRET-peptides contribute to the fluorescence signals and therefore to the Emission Ratio. The extent of phosphorylation of the FRET-peptide can be calculated from the Emission Ratio. The Emission Ratio will remain low if the FRET-peptide is phosphorylated (i.e., no kinase inhibition) and will be high if the FRET-peptide is non-phosphorylated (i.e., kinase inhibition).
Enzyme: The ADAPTA universal kinase assay is a homogenous, fluorescent based immunoassay for the detection of ADP. In contrast to ATP depletion assays, the ADAPTA assay is extremely sensitive to ADP formation such that a majority of the signal change occurs in the first 10-20% conversion of ATP to ADP. This makes the ADAPTA universal kinase assay ideally suited for use with low activity kinases.
The principle of the ADAPTA universal kinase assay is outlined below. The assay itself can be divided into two phases: a kinase reaction phase, and an ADP detection phase. In the kinase reaction phase, all components required for the kinase reaction are added to the well, and the reaction is allowed to incubate for 60 minutes. After the reaction, a detection solution consisting of a europium labeled anti-ADP antibody, an Alexa Fluor® 647 labeled ADP tracer, and EDTA (to stop the kinase reaction) is added to the assay well. ADP formed by the kinase reaction (in the absence of an inhibitor) will displace the Alexa Fluor® 647 labeled ADP tracer from the antibody, resulting in a decrease in the TR-FRET signal. In the presence of an inhibitor, the amount of ADP formed by the kinase reaction is reduced, and the resulting intact antibody-tracer interaction results in a high TR-FRET signal.
Test Compounds: The Test Compounds are screened in 1% DMSO (final) in the well. For 10 point titrations, 3-fold serial dilutions are conducted from the starting concentration of the customer’s choosing.
Peptide/Kinase Mixtures: All Peptide/Kinase Mixtures are diluted to a 2X working concentration in the appropriate Kinase Buffer.
ATP Solution: All ATP Solutions are diluted to a 4X working concentration in Kinase Buffer (50 mM HEPES pH 7.5, 0.01% BRIJ-35, 10 mM MgCl2,1 mM EGTA). ATP Km apparent is previously determined using a Z′-LYTE® assay.
Development Reagent Solution: The Development Reagent is diluted in Development Buffer.
Assay Protocol: Bar-coded Corning, low volume NBS, black 384-wellplate (Corning Cat. #4514) 1. 2.5 µL - 4X Test Compound or 100 nL 100X plus 2.4 µL kinase buffer. 2. 5 µL - 2X Peptide/Kinase Mixture. 3. 2.5 µL - 4X ATP Solution. 4. 30-second plate shake. 5. 60-minute Kinase Reaction incubation at room temperature. 6. 5 µL - Development Reagent Solution. 7. […]

Experiment [2] has as its system HT29. The experiment is described as follows: NCI COMPARE panel (SRB growth inhibition), HT29. It counts as cell-based. The following applies: Homo sapiens, HT-29; Colon Cancer, HT29, 48 h. As to the method: (§1) The human tumor cell lines of the cancer screening panel are grown in RPMI 1640 medium containing 5% fetal bovine serum and 2 mM L-glutamine. For a typical screening experiment, cells are inoculated into 96 well microtiter plates in 100 µL at plating densities ranging from 5,000 to 40,000 cells/well depending on the doubling time of individual cell lines. After cell inoculation, the microtiter plates are incubated at 37° C., 5% CO2, 95% air and 100% relative humidity for 24 h prior to addition of experimental drugs.
(§2) After 24 h, two plates of each cell line are fixed in situ with TCA, to represent a measurement of the cell population for each cell line at the time of drug addition (Tz). Experimental drugs are solubilized in dimethyl sulfoxide at 400-fold the desired final maximum test concentration and stored frozen prior to use. […]
(§3) Following drug addition, the plates are incubated for an additional 48 h at 37° C., 5 % CO2, 95% air, and 100% relative humidity. […] Bound stain is subsequently solubilized with 10 mM trizma base, and the absorbance is read on an automated plate reader at a wavelength of 515 nm. […] Using the seven absorbance measurements [time zero, (Tz), control growth, (C), and test growth in the presence of drug at the five concentration levels (Ti)], the percentage growth is calculated at each of the drug concentrations levels. Percentage growth inhibition is calculated as: […]

Experiment [3] deals with UACC-257. The experiment is described as follows: NCI COMPARE panel (SRB growth inhibition), UACC-257. It counts as cell-based. The following applies: Homo sapiens; Melanoma, UACC-257, 48 h. As to the method: as §1, §2, §3
The subject of experiment [4] is OVCAR-5. Briefly: NCI COMPARE panel (SRB growth inhibition), OVCAR-5. It counts as cell-based. The note with it: Homo sapiens; Ovarian Cancer, OVCAR-5, 48 h. As to the method: as §1, §2, §3

Sequence of PI3Kα (P42336 whole entry): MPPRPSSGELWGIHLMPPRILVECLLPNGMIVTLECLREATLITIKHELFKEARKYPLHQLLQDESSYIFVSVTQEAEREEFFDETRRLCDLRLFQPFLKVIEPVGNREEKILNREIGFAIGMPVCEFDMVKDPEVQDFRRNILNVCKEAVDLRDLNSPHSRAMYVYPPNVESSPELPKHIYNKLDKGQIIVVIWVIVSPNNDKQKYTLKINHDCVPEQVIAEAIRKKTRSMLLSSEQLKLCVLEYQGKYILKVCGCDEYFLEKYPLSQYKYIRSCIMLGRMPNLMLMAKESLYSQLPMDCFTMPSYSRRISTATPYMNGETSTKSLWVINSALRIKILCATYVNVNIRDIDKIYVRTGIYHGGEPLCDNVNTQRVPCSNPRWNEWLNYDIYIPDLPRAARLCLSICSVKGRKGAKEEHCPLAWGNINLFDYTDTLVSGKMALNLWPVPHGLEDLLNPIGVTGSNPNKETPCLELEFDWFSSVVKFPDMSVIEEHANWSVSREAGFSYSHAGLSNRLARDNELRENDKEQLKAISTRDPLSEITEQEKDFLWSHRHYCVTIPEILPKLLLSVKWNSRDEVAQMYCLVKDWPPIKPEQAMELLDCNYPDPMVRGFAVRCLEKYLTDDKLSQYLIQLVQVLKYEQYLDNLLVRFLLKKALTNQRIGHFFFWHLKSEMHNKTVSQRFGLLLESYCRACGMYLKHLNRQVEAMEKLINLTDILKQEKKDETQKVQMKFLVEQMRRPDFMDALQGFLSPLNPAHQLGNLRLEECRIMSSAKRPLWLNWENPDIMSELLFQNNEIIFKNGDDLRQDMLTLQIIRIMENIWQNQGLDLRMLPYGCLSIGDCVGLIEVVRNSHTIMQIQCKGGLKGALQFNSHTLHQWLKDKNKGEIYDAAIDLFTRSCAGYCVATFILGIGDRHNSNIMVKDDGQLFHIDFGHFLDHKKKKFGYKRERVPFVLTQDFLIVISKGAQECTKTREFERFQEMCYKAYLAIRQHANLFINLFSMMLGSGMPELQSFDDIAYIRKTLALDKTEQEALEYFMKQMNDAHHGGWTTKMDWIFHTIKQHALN
Sequence of PI3Kα (P27986 whole entry partner): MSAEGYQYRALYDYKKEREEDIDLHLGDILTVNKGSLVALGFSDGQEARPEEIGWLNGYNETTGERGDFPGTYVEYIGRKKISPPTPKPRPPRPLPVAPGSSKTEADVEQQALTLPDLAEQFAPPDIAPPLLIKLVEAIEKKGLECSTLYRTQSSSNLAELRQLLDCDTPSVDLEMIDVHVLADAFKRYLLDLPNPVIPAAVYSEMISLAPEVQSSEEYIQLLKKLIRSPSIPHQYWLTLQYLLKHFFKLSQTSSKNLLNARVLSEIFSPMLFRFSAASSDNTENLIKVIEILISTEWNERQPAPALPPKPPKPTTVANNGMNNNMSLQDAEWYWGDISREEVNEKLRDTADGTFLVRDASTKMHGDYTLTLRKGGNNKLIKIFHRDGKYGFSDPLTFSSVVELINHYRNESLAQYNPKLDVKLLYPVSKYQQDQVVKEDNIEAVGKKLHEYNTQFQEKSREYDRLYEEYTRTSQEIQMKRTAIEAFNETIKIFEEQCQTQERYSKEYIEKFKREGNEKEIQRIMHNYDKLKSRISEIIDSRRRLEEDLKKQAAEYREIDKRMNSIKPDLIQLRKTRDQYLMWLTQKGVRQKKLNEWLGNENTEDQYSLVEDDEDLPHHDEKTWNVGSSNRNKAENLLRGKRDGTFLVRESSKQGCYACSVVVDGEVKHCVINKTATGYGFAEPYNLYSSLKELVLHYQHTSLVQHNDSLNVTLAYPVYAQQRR

The inhibition is the drop in the measured response relative to a control, in per cent. For orientation: GI50 means the concentration at which growth is held to half of that of the control. Turning to `CS(=O)(=O)Nc1cc(-c2ccc3ncc(C#N)c(Nc4cccc(Cl)c4F)c3c2)cnc1Cl` [Compound 10, N-[2-chloro-5-[4-(3-chloro-2-fluoro-anilino)-3-cyano-6-quinolyl]-3-pyridyl]methanesulfonamide], in experiment [1], the inhibition at 0.1 µM was > 90%. For the same molecule, the GI50 in experiment [2], in experiment [3] and in experiment [4] was > 250 nM each time.
Broadly, the IC50 is the concentration needed to halve the response being measured. `CS(=O)(=O)Nc1cc(-c2ccc3ncnc(Nc4cccc(Cl)c4F)c3c2)cnc1Cl` [Compound 6, N-[2-chloro-5-[4-(3-chloro-2-fluoro-anilino)quinazolin-6-yl]-3-pyridyl] methanesulfonamide]: the IC50 in experiment [1] (PI3Kα) is ≤ 2 nM. For the same molecule, the inhibition at 0.1 µM in experiment [1] was > 90%. Moreover, the 50% growth inhibitory concentration (GI50) in experiment [2], in experiment [3] and in experiment [4] was 125 to 250 nM in each case.
